Measured values published in patent US20140105837A1, “NOVEL ARYL C-XYLOSIDE COMPOUNDS, AND COSMETIC USE” (L'OREAL, priority 2008, published 2014).

What was measured:
Format in all cases: cell-based
[1] = tested on: normal human dermal fibroblasts; assay: Sulfated glycosaminoglycan synthesis on fibroblasts (35S-sulfate radioactive label incorporation); conditions: other experimental plan, n=2
keratinocytes [2] = assay: Sulfated glycosaminoglycan synthesis on keratinocytes (35S-sulfate radioactive label incorporation); conditions: for % glycosaminoglycan synthesis relative to the control: control = 100; for Mean value (incorporated radioactivity, sulfated GAGs): n=3
Experimental: (§1) Study of the effect of C-glycoside derivatives on sulfated glycosaminoglycan synthesis on fibroblasts and on keratinocytes:
(§2) The study is carried out by measuring the incorporation of radioactive glucosamine into the matrix neosynthesized by cultures of normal human dermal fibroblasts or by keratinocytes. The incorporation of radioactive glucosamine indicates specific neosynthesis of glycosaminoglycans via an incorporation of the acetylated form of this glucosamine.
The keratinocyte cultures are performed in keratinocyte-SFM medium sold by the company Gibco, in the presence of EGF (Epidermal Growth Factor) (0.25 ng/ml), of pituitary extract (25 μg/ml) and of gentamycin (25 μg/ml).
The fibroblasts and the keratinocytes were cultured in 96-well plates. At confluence, the culture medium was replaced with suitable culture medium containing or not containing (control) the test compound or the reference, and then the cells were incubated for 48 hours. The 35S-sulfate radioactive label was added (40 μCi final concentration) and the cells were incubated for a further 24 hours. […]
(§3) The extracellular matrix glycosaminoglycans were extracted with one volume of chaotropic buffer (50 mM Tris/HCl, 4 M guanidine, 5 mM, EDTA, pH 8.0). The sulfated GAGs were purified by ion exchange chromatography: absorption of the anionic molecules onto Q-Sepharose beads under high-stringency conditions, desorption of the molecules which are not very anionic and molecules which are moderately anionic, with a 6 M urea solution containing […] NaCl, and then washing.
(§4) The radioactivity incorporated into the highly […] molecules that have remained on the support (predominantly GAGs) was measured by liquid scintillation.
(§5) The results are evaluated relative to a control consisting of cells which have not been treated with a compound of formula (I).
A positive control (CaCl2 at 1.4 mM) known to stimulate GAG synthesis is introduced into the test carried out on keratinocytes, as a positive reference.
(§6) The results are expressed as percentage variation in glycosaminoglycan synthesis relative to the control.

[3] = tested on: normal human dermal fibroblasts; assay: Sulfated glycosaminoglycan synthesis on fibroblasts (35S-sulfate radioactive label incorporation); conditions: for % glycosaminoglycan synthesis relative to the control / Mean value (incorporated radioactivity, sulfated GAGs): fibroblasts; for % glycosaminoglycan synthesis relative to the control: control = 100; for Effectiveness for increasing sulfated GAG synthesis (in words): summary of the tests on fibroblasts and keratinocytes; for Mean value (incorporated radioactivity, sulfated GAGs): n=3
Experimental: as §1, §2
The fibroblast cultures are performed according to conventional cell culture methods, namely in DMEM medium sold by the company Gibco, in the presence of L-glutamine (2 mM), of penicillin (50 IU/ml) and of 10% of fetal calf serum (Gibco).
The fibroblasts and the keratinocytes were cultured in 96-well plates. At confluence, the culture medium was replaced with suitable culture medium containing or not containing (control) the test compound or the reference, and then the cells were incubated for 48 hours. The 35S-sulfate radioactive label was added (40 μCi final concentration) and the cells were incubated for a further 24 hours. All the conditions were carried out 3 times.
as §3, §4, §5
A positive control (TGFβ at 10 ng/ml) known to stimulate GAG synthesis is introduced into the test carried out on fibroblasts, as a positive reference.
as §6

keratinocytes [4] = assay: Sulfated glycosaminoglycan synthesis on keratinocytes (35S-sulfate radioactive label incorporation); conditions: other experimental plan, n=2
[5] = 0.1 mM, other experimental plan

With `Oc1ccccc1CCC(O)CC1OC[C@@H](O)[C@H](O)[C@H]1O` (stereo partly drawn) [Compound 8, 1-(α,β)-D-xylopyranosyl-4-(2-hydroxyphenyl)butan-2-ol] the “Mean value (incorporated radioactivity, sulfated GAGs)” value (from here on “Mean value”) ([1]; 0.1 mM) was 2938 cpm, the “Mean value” value ([1]; 1 mM) was 10371 cpm and the “% glycosaminoglycan synthesis relative to the control” value (keratinocytes [2]; [5]) was 316%. For the same compound, the “% glycosaminoglycan synthesis relative to the control” value (keratinocytes [2]; 1 mM, other experimental plan) was 665%, the “% glycosaminoglycan synthesis relative to the control” value [3, 5] was 117% and the “% glycosaminoglycan synthesis relative to the control” value ([3]; 1 mM, other experimental plan) was 412%. The “Effectiveness for increasing sulfated GAG synthesis (in words)” value [3] was “highly effective”, the “Mean value” value (keratinocytes [4]; 0.1 mM) was 40552 cpm and the “Mean value” value (keratinocytes [4]; 1 mM) was 85456 cpm.
`COc1cc(CCC(O)CC2OC[C@@H](O)[C@H](O)[C@H]2O)ccc1O` (stereo partly drawn) [Compound 1, 1-(α,β)-D-xyopyranosyl-4-(4-hydroxy-3-methoxyphenyl)butan-2-ol] was tested, and the “% glycosaminoglycan synthesis relative to the control” value (keratinocytes [2]; 0.37 mM) was 707%, the “Mean value” value (keratinocytes [2]; 0.37 mM) was 31999 cpm and the “% glycosaminoglycan synthesis relative to the control” value (keratinocytes [2]; 1.1 mM) was 813%. The “Mean value” value (keratinocytes [2]; 1.1 mM) was 36795 cpm, the “% glycosaminoglycan synthesis relative to the control” value ([3]; 40 μM) was 351% and the “Mean value” value ([3]; 40 μM) was 8130 cpm. The “% glycosaminoglycan synthesis relative to the control” value ([3]; 120 μM) was 657%, the “Mean value” value ([3]; 120 μM) was 15318 cpm and the “Effectiveness for increasing sulfated GAG synthesis (in words)” value [3] was “highly effective”. The “Effectiveness for increasing sulfated GAG synthesis (in words)” value ([3]; listed as example 2) was “very effective”.
In the case of “TGFβ: positive control known to stimulate GAG synthesis, used at 10 ng/ml on fibroblasts [reference compound]”, the “% glycosaminoglycan synthesis relative to the control” value ([3]; TGFβ at 10 ng/ml) is reported as 174% and the “Mean value” value ([3]; TGFβ at 10 ng/ml) is reported as 4062 cpm.
`[Ca+2].[Cl-].[Cl-]` [CaCl2, reference compound] was tested, and the “% glycosaminoglycan synthesis relative to the control” value (keratinocytes [2]; CaCl2 at 1.4 mM) was 117% and the “Mean value” value (keratinocytes [2]; CaCl2 at 1.4 mM) was 5273 cpm.
In the case of `OC(CCc1ccccc1)CC1OC[C@@H](O)[C@H](O)[C@H]1O` (stereo partly drawn) [Compound 9, 1-(α,β)-D-xylopyranosyl-4-phenylbutan-2-ol], the “Mean value” value ([1]; 0.1 mM) is reported as 10838 cpm, the “Mean value” value ([1]; 1 mM) is reported as 23620 cpm and the “% glycosaminoglycan synthesis relative to the control” value (keratinocytes [2]; 0.1 μM, other experimental plan) is reported as 563%. For the same compound, the “% glycosaminoglycan synthesis relative to the control” value (keratinocytes [2]; 1 μM, other experimental plan) was 547%, the “% glycosaminoglycan synthesis relative to the control” value [3, 5] was 430% and the “% glycosaminoglycan synthesis relative to the control” value ([3]; 1 mM, other experimental plan) was 938%. The “Effectiveness for increasing sulfated GAG synthesis (in words)” value [3] was “highly effective”, the “Mean value” value (keratinocytes [4]; 0.1 μM) was 24106 cpm and the “Mean value” value (keratinocytes [4]; 1 μM) was 99041 cpm.
